Calls of active or inactive are those of the source. No cut-off for these calls is given here. Bridge positions count the residues as written; N and C are the ends. Peptide text beside a SMILES is read from it.
Key:
Albumin [1] = target: T1, Albumin (Homo sapiens, UniProt P02768); assay: Binding affinity to human serum albumin assessed as remaining parent compound at 3 mM measured up to 24 hrs by RP-HPLC analysis; format: ADME, cell-free; conditions: read-out: Activity
Vibrio harveyi = assay: Antibacterial activity against Vibrio harveyi assessed as reduction in microbial growth at 0.024 to 0.113 mg/ml after 270 mins by microdilution assay; format: functional, organism-based; conditions: dose 0.024-0.113 mg/ml
Klebsiella pneumoniae = assay: Antibacterial activity against Klebsiella pneumoniae assessed as reduction in microbial growth at 0.024 to 0.113 mg/ml after 270 mins by microdilution assay; format: functional, organism-based; conditions: dose 0.024-0.113 mg/ml
[2] = Cytotoxicity against human PBMC cells assessed as reduction in cell viability at 5 to 50 ug/ml measured up to 48 hrs by CellTox Green assay; format: cell-based; conditions: dose 5-50 µg/ml
Pseudomonas aeruginosa = assay: Antibacterial activity against Pseudomonas aeruginosa assessed as reduction in microbial growth at 0.024 to 0.113 mg/ml after 270 mins by microdilution assay; format: functional, organism-based; conditions: dose 0.024-0.113 mg/ml
Albumin [3] = target: T1, Albumin; assay: Binding affinity to albumin (unknown origin) at 3 mM measured up to 24 hrs by RP-HPLC analysis; format: ADME, cell-free; conditions: serum, 3000 µM
Escherichia coli = assay: Antibacterial activity against Escherichia coli assessed as reduction in microbial growth at 0.024 to 0.113 mg/ml after 270 mins by microdilution assay; format: functional, organism-based; conditions: dose 0.024-0.113 mg/ml
[4] = test system: Tenacibaculum skagerrakense; assay: Antibacterial activity against Tenacibaculum skagerrakense assessed as reduction in microbial growth at 0.024 to 0.113 mg/ml after 270 mins by microdilution assay; format: functional; conditions: dose 0.024-0.113 mg/ml
Vibrio mediterranei = assay: Antibacterial activity against Vibrio shilonii assessed as reduction in microbial growth at 0.024 to 0.113 mg/ml after 270 mins by microdilution assay; format: functional; conditions: dose 0.024-0.113 mg/ml
[5] = test system: Pseudoalteromonas shioyasakiensis; assay: Antibacterial activity against Pseudoalteromonas […] assessed as reduction in microbial growth at 0.024 to 0.113 mg/ml after 270 mins by microdilution assay; format: functional; conditions: dose 0.024-0.113 mg/ml
Alteromonas macleodii = assay: Antibacterial activity against Alteromonas macleodii assessed as reduction in microbial growth at 0.024 to 0.113 mg/ml after 270 mins by microdilution assay; format: functional; conditions: dose 0.024-0.113 mg/ml
Enterococcus faecalis = assay: Antibacterial activity against Enterococcus faecalis assessed as reduction in microbial growth at 0.024 to 0.113 mg/ml after 270 mins by microdilution assay; format: functional, organism-based; conditions: dose 0.024-0.113 mg/ml
PBMC = assay: Antiinflammatory activity against LPS-induced human PBMC cells assessed as reduction in TNF-alpha expression at 7.5 to 100 ug/ml by ELISA; format: functional, cell-based; conditions: dose 7.5-100 µg/ml
Streptococcus pyogenes = assay: Antibacterial activity against Streptococcus pyogenes assessed as reduction in microbial growth at 0.024 to 0.113 mg/ml after 270 mins by microdilution assay; format: functional, organism-based; conditions: dose 0.024-0.113 mg/ml
Serratia marcescens = assay: Antibacterial activity against Serratia marcescens assessed as reduction in microbial growth at 0.024 to 0.113 mg/ml after 270 mins by microdilution assay; format: functional, organism-based; conditions: dose 0.024-0.113 mg/ml
Staphylococcus aureus = assay: Antibacterial activity against methicillin-resistant Staphylococcus aureus assessed as reduction in microbial growth at 0.024 to 0.113 mg/ml after 270 mins by microdilution assay; format: functional, organism-based; conditions: dose 0.024-0.113 mg/ml
Vibrio coralliilyticus = assay: Antibacterial activity against Vibrio coralliilyticus assessed as reduction in microbial growth at 0.024 to 0.113 mg/ml after 270 mins by microdilution assay; format: functional; conditions: dose 0.024-0.113 mg/ml
Streptococcus pneumoniae = assay: Antibacterial activity against Streptococcus pneumoniae assessed as reduction in microbial growth at 0.024 to 0.113 mg/ml after 270 mins by microdilution assay; format: functional, organism-based; conditions: dose 0.024-0.113 mg/ml

T1 sequence (P02768 whole entry): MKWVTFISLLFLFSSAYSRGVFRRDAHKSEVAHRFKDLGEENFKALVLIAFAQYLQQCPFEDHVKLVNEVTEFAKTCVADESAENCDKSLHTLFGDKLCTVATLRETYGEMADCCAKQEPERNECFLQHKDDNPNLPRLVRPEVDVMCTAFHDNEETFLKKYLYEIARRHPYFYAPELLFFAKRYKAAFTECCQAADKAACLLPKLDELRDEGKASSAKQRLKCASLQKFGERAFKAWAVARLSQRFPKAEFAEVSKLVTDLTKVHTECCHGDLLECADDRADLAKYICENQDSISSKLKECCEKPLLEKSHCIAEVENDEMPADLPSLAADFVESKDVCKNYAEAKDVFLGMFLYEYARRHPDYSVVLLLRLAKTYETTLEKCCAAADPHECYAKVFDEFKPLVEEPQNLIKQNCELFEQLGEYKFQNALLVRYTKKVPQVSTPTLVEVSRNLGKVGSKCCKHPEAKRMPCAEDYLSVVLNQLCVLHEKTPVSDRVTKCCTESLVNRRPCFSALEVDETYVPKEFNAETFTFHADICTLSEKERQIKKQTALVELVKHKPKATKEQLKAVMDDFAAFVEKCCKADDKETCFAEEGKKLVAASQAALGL

SMILES	remaining at 24 h, 3000 µM (Albumin [1]) [%]	Activity (Vibrio harveyi)	Activity (Klebsiella pneumoniae)	Activity [2]	Activity (Pseudomonas aeruginosa)	Activity (Albumin [3])	Activity (Escherichia coli)	Activity [4]	Activity (Vibrio mediterranei)	Activity [5]	Activity (Alteromonas macleodii)	Activity (Enterococcus faecalis)	Activity (PBMC)	Activity (Streptococcus pyogenes)	Activity (Serratia marcescens)	Activity (Staphylococcus aureus)	Activity (Vibrio coralliilyticus)	Activity (Streptococcus pneumoniae)
CC[C@H](C)[C@H](NC(=O)[C@@H](NC(=O)[C@@H](N)Cc1ccccc1)[C@H](C)O)C(=O)N[C@@H](Cc1ccc(O)cc1)C(=O)N1CCC[C@H]1C(=O)NCC(=O)N[C@H]1CSSC[C@@H](C(=O)O)NC(=O)[C@H](Cc2ccccc2)NC(=O)[C@H](CC(C)C)NC(=O)CNC(=O)[C@H](Cc2c[nH]cn2)NC1=O	85																	
CC[C@H](C)[C@@H]1NC(=O)[C@H](CC(C)C)NC(=O)CNC(=O)[C@H](Cc2ccccc2)NC(=O)[C@@H]2CCCN2C(=O)[C@H]([C@@H](C)O)NC(=O)[C@H](Cc2ccc(O)cc2)NC(=O)[C@H](Cc2c[nH]cn2)NC(=O)[C@@H](NC(=O)CN)CSSC[C@@H](C(=O)N[C@@H](Cc2ccccc2)C(=O)O)NC1=O (H-GCHYTPFGLICF-OH; disulfide 2-11)	3	inactive	inactive	Non-Toxic	inactive	Active	inactive	inactive	inactive	inactive	inactive	inactive	Active	Active	inactive	Active	inactive	inactive

— ChEMBL document CHEMBL4673278, “Identification and Characterization of a Peptide from the Stony Coral Heliofungia actiniformis” (J Nat Prod, 2020)
